Laboratory results from ChEMBL document CHEMBL1268927, “Antitumor activity of 3,4-dihydroquinazoline dihydrochloride in A549 xenograft nude mice” (Bioorg Med Chem Lett, 2010).

Experiments:
[1] = tested on: A549; assay: Antitumor activity against human A549 cells xenografted in iv dosed BALB/c mouse assessed as inhibition of tumor weight administered QD for 28 days measured post last dose; assay type: functional, organism-based
[2] = tested on: A549; assay: Antitumor activity against human A549 cells xenografted in BALB/c mouse assessed as inhibition of tumor weight at 2 mg/kg, iv administered once per 2 days for 4 weeks measured post last dose; assay type: functional
[3] = tested on: A549; assay: Cytotoxicity against human A549 cells by MTT assay; assay type: functional, cell-based
[4] = tested on: LNCaP; assay: Cytotoxicity against human LNCAP cells by MTT assay; assay type: functional, cell-based
[5] = Cytotoxicity against human A172 cells by MTT assay; assay type: functional, cell-based, A 172
[6] = tested on: MDA-MB-231; assay: Cytotoxicity against human MDA-MB-231 cells by MTT assay; assay type: functional, cell-based
[7] = tested on: SK-BR-3; assay: Cytotoxicity against human SKBR3 cells by MTT assay; assay type: functional, cell-based
[8] = tested on: HeLa; assay: Cytotoxicity against human HeLa cells by MTT assay; assay type: functional, cell-based
[9] = tested on: SK-OV-3; assay: Cytotoxicity against human SKOV3 cells by MTT assay; assay type: functional, cell-based
[10] = Toxicity in iv dosed ICR mouse administered as single dose; assay type: organism-based; details: in vivo
[11] = Mean residence time in Sprague-Dawley rat at 5 mg/kg, iv; assay type: ADME, organism-based; design: dose 5 mg/kg, route intravenous; details: in vivo
[12] = tested on: Mus musculus; assay: Toxicity in ICR mouse assessed as occurrence of erosion at 45 mg/kg, iv administered as single dose measured up to 10 mins; assay type: organism-based; design: dose 45 mg/kg, route intravenous; details: in vivo
[13] = tested on: Mus musculus; assay: Toxicity in ICR mouse assessed as occurrence of erosion at 34.6 mg/kg, iv administered as single dose; assay type: organism-based; design: dose 34.6 mg/kg, route intravenous; details: in vivo
[14] = tested on: Mus musculus; assay: Toxicity in ICR mouse assessed as occurrence of panting at 45 mg/kg, iv administered as single dose measured up to 10 mins; assay type: organism-based; design: dose 45 mg/kg, route intravenous; details: in vivo
[15] = tested on: Rattus norvegicus; assay: Volume of distribution in Sprague-Dawley rat at 10 mg/kg, iv; assay type: ADME, organism-based; design: dose 10 mg/kg, route intravenous; details: in vivo
[16] = Toxicity in ICR mouse assessed as mortality rate at 1000 mg/kg, po administered as single dose; assay type: organism-based; design: dose 1000 mg/kg, route oral; details: in vivo, read-out: Activity
[17] = tested on: Mus musculus; assay: Toxicity in ICR mouse assessed as occurrence of inanimation at 34.6 mg/kg, iv administered as single dose; assay type: organism-based; design: dose 34.6 mg/kg, route intravenous; details: in vivo
[18] = tested on: Rattus norvegicus; assay: Half life in Sprague-Dawley rat at 5 mg/kg, iv; assay type: ADME, organism-based; design: dose 5 mg/kg, route intravenous; details: in vivo
[19] = tested on: Rattus norvegicus; assay: Volume of distribution in Sprague-Dawley rat at 5 mg/kg, iv; assay type: ADME, organism-based; design: dose 5 mg/kg, route intravenous; details: in vivo
[20] = Oral bioavailability in Sprague-Dawley rat at 5 mg/kg; assay type: ADME, organism-based; details: in vivo
[21] = tested on: Mus musculus; assay: Toxicity in BALB/c mouse xenografted with human A549 cells assessed as decrease in body weight at 2 mg/kg, iv administered once per 2 days for 4 weeks measured on day 8; assay type: organism-based; design: dose 2 mg/kg, route intravenous; details: in vivo
[22] = Toxicity in ICR mouse assessed as mortality rate at 500 mg/kg, po administered as single dose; assay type: organism-based; design: dose 500 mg/kg, route oral; details: in vivo, read-out: Activity
[23] = tested on: Mus musculus; assay: Toxicity in ICR mouse assessed as appearance of solid perineal region at 500 mg/kg, po administered as single dose; assay type: organism-based; design: dose 500 mg/kg, route oral; details: in vivo
[24] = Oral bioavailability in Sprague-Dawley rat at 10 mg/kg; assay type: ADME, organism-based; details: in vivo
[25] = Toxicity in po dosed ICR mouse administered as single dose; assay type: organism-based; details: in vivo
[26] = tested on: Mus musculus; assay: Toxicity in ICR mouse assessed as occurrence of diarrhea at 500 mg/kg, po administered as single dose; assay type: organism-based; design: dose 500 mg/kg, route oral; details: in vivo
[27] = tested on: Rattus norvegicus; assay: Half life in Sprague-Dawley rat at 10 mg/kg, iv; assay type: ADME, organism-based; design: dose 10 mg/kg, route intravenous; details: in vivo
[28] = tested on: A549; assay: Ratio of compound to doxorubicin activity against human A549 cells xenografted in BALB/c mouse at 2 mg/kg, iv; assay type: functional
[29] = tested on: Mus musculus; assay: Toxicity in ICR mouse assessed as loss of locomotor activity at 45 mg/kg, iv administered as single dose measured up to 10 mins; assay type: organism-based; design: dose 45 mg/kg, route intravenous; details: in vivo
[30] = Mean residence time in Sprague-Dawley rat at 10 mg/kg, iv; assay type: ADME, organism-based; design: dose 10 mg/kg, route intravenous; details: in vivo
[31] = tested on: A549; assay: Antitumor activity against human A549 cells xenografted in BALB/c mouse assessed as inhibition of tumor weight at 1 mg/kg, iv QD for 28 days measured post last dose; assay type: functional; details: A549, 672 h
[32] = AUC in Sprague-Dawley rat at 10 mg/kg, iv; assay type: ADME, organism-based; design: dose 10 mg/kg, route intravenous; details: plasma
[33] = tested on: Mus musculus; assay: Toxicity in ICR mouse assessed as occurrence of inanimation at 45 mg/kg, iv administered as single dose measured up to 10 mins; assay type: organism-based; design: dose 45 mg/kg, route intravenous; details: in vivo
[34] = tested on: Mus musculus; assay: Toxicity in ICR mouse assessed as appearance of clinical signs at 250 mg/kg, po administered as single dose; assay type: organism-based; design: dose 250 mg/kg, route oral; details: in vivo
[35] = tested on: Mus musculus; assay: Toxicity in ICR mouse assessed as occurrence of diarrhea at 100 mg/kg, po administered as single dose; assay type: organism-based; design: dose 100 mg/kg, route oral; details: in vivo
[36] = tested on: Mus musculus; assay: Toxicity in ICR mouse assessed as loss of locomotor activity at 34.6 mg/kg, iv administered as single dose; assay type: organism-based; design: dose 34.6 mg/kg, route intravenous; details: in vivo
[37] = tested on: A549; assay: Antitumor activity against human A549 cells xenografted in BALB/c mouse assessed as inhibition of tumor weight at 2 mg/kg, iv QD for 28 days measured post last dose; assay type: functional; details: A549, 672 h
[38] = Cmax in Sprague-Dawley rat at 5 mg/kg, iv; assay type: ADME, organism-based; design: dose 5 mg/kg, route intravenous; details: in vivo
[39] = tested on: Mus musculus; assay: Toxicity in ICR mouse assessed as appearance of solid perineal region at 1000 mg/kg, po administered as single dose; assay type: organism-based; design: dose 1000 mg/kg, route oral; details: in vivo
[40] = Cmax in Sprague-Dawley rat at 10 mg/kg, iv; assay type: ADME, organism-based; design: dose 10 mg/kg, route intravenous; details: in vivo
[41] = tested on: Mus musculus; assay: Toxicity in ICR mouse assessed as appearance of clinical signs at 26.6 mg/kg, iv administered as single dose; assay type: organism-based; design: dose 26.6 mg/kg, route intravenous; details: in vivo
[42] = Toxicity in ICR mouse assessed as mortality rate at 34.6 mg/kg, iv administered as single dose; assay type: organism-based; design: dose 34.6 mg/kg, route intravenous; details: in vivo, read-out: Activity
[43] = Toxicity in ICR mouse assessed as mortality rate at 250 mg/kg, po administered as single dose; assay type: organism-based; design: dose 250 mg/kg, route oral; details: in vivo, read-out: Activity
[44] = tested on: Mus musculus; assay: Toxicity in BALB/c mouse xenografted with human A549 cells assessed as effect on body weight at 1 to 2 mg/kg, iv QD for 28 days measured post last dose; assay type: organism-based; design: dose 1-2 mg/kg, route intravenous; details: in vivo, 672 h
[45] = Toxicity in ICR mouse assessed as mortality rate at 26.6 mg/kg, iv administered as single dose; assay type: organism-based; design: dose 26.6 mg/kg, route intravenous; details: in vivo, read-out: Activity
[46] = tested on: Mus musculus; assay: Toxicity in ICR mouse assessed as occurrence of panting at 34.6 mg/kg, iv administered as single dose; assay type: organism-based; design: dose 34.6 mg/kg, route intravenous; details: in vivo
[47] = AUC in Sprague-Dawley rat at 5 mg/kg, iv; assay type: ADME, organism-based; design: dose 5 mg/kg, route intravenous; details: plasma

CN(C)CCCCCN(C)C1=Nc2ccccc2C(CC(=O)NCc2ccccc2)N1c1ccc(-c2ccccc2)cc1 (centres undefined) [listing 1 of 2 here]
inhibition [1]: Dose-dependent effect

COc1cccc2c1C(=O)c1c(O)c3c(c(O)c1C2=O)C[C@@](O)(C(=O)CO)C[C@@H]3O[C@H]1C[C@H](N)[C@H](O)[C@H](C)O1 [DOXORUBICIN]
inhibition in vivo at 2 mg/kg [2]: 30%

CN(C)CCCCCN(C)C1=Nc2ccccc2C(CC(=O)NCc2ccccc2)N1c1ccc(-c2ccccc2)cc1 (centres undefined) [listing 2 of 2 here]
IC50 ([3]; Homo sapiens, A549): 5.17 µM | IC50 ([4]; Homo sapiens, LNCaP): 4.7 µM | IC50 ([5]; Homo sapiens, A 172): 4.83 µM | IC50 ([6]; Homo sapiens, MDA-MB-231): 2.65 µM | IC50 ([7]; Homo sapiens, SK-BR-3): 2.17 µM | IC50 ([8]; Homo sapiens, HeLa): 4.04 µM | IC50 ([9]; Homo sapiens, SK-OV-3): 5 µM

CN(C)CCCCCN(C)C1=Nc2ccccc2C(CC(=O)NCc2ccccc2)N1c1ccc(-c2ccccc2)cc1.Cl.Cl (centres undefined)
LD50 [10]: 40 mg/kg | MRT [11]: 5.09 h | Activity [12]: Toxic | Activity [13]: Toxic | Activity [14]: Toxic | Vd [15]: 0.61 L/kg | mortality [16]: 80% | Activity [17]: Toxic | t1/2 [18]: 8.716 h | Vd [19]: 0.33 L/kg | bioavailability [20]: 98.3% | Activity [21]: Toxic | mortality [22]: 40% | Activity [23]: Toxic | bioavailability [24]: 70.1% | LD50 [25]: 693 mg/kg | Activity [26]: Toxic | t1/2 [27]: 19.8715 h | IC50 ([3]; a549): 5 µM | Ratio [28]: 1.6 | Activity [29]: Toxic | IC50 ([4]; lncap): 5.19 µM | IC50 ([5]; a 172): 4.61 µM | MRT [30]: 7.19 h | inhibition in vivo at 1 mg/kg [31]: 29% | AUC [32]: 279 µg·h/mL | IC50 ([6]; mda-mb-231): 1.64 µM | Activity [33]: Toxic | Activity [34]: Non-toxic | Activity [35]: Toxic | IC50 ([7]; sk-br-3): 1.83 µM | Activity [36]: Toxic | inhibition in vivo at 2 mg/kg [37]: 49% | Cmax [38]: 460 ng/mL | Activity [39]: Toxic | Cmax [40]: 1030 ng/mL | IC50 ([8]; hela): 3.11 µM | Activity [41]: Toxic | IC50 ([9]; sk-ov-3): 5.22 µM | mortality [42]: 20% | mortality [43]: 0% | Activity [44]: Non-toxic | mortality [45]: 0% | Activity [46]: Toxic | AUC [47]: 128 µg·h/mL
